In paper PMC11952367 (bioRxiv, 2025):

Columns and labels:
ΔC-TWIK-2 = target: T1, ΔC-TWIK-2 (Homo sapiens, UniProt Q9Y257); experiment: automated whole-cell patch clamp; assay type: cell-based
T1 sequence (Q9Y257 1-276): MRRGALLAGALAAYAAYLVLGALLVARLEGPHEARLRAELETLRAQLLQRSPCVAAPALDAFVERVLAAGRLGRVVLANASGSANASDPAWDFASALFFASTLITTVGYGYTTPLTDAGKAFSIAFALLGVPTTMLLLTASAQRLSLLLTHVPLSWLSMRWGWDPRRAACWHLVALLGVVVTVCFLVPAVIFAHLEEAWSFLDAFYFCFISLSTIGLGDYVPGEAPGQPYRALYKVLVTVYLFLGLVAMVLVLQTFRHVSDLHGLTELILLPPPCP

TWIK-2 = target: T2, TWIK-2 (Homo sapiens, UniProt Q9Y257); experiment: automated whole-cell patch clamp, HEK293 GnTI- cells; assay type: cell-based; conditions: inhibition; voltage step to +60 mV from holding -90 mV
T2 sequence (Q9Y257 1-313): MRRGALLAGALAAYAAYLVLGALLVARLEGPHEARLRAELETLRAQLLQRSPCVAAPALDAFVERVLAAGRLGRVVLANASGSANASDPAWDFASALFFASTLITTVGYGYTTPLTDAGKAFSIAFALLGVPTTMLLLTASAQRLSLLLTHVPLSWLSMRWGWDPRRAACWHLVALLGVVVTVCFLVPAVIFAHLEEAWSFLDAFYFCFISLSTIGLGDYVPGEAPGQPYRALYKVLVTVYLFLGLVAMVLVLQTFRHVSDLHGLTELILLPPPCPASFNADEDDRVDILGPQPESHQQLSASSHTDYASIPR

With `COc1ccccc1C(=O)Nc1cccc(NC(=O)c2cccc(C)c2)c1` [ML365] the “percentage inhibition at maximum drug concentration” value (ΔC-TWIK-2) was “in ΔC-TWIK-2, we see a significant reduction in percentage inhibition at maximum drug concentration” and the IC50 (TWIK-2) was 1500 nM.
